Assay results as given in the supplement of paper PMC10307832.

How the values were obtained:
Test in all cases: relative viability (nuclei count vs DMSO), 5 days (fraction); higher = more cells survive
Sorafenib = compound: CNC(=O)c1cc(Oc2ccc(NC(=O)Nc3ccc(Cl)c(C(F)(F)F)c3)cc2)ccn1 [Sorafenib]
Method in brief: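 Only plates meeting two conditions passed: control CV below 25% and at least one doubling. Lung cancer cell lines, kept overnight at 37 °C in 1536-well plates, were pinned with five library-drug doses (not always all listed) √10 apart on vehicle-anchored plates and grown 5 days without medium change. A one-step fix, permeabilisation and Hoechst stain preceded 4× imaging and MetaXpress nuclear counting. Viability equals treated-well nuclei divided by vehicle-well nuclei, as the median over plates.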

Sorafenib + Palbociclib = compound: CNC(=O)c1cc(Oc2ccc(NC(=O)Nc3ccc(Cl)c(C(F)(F)F)c3)cc2)ccn1 [Sorafenib] + CC(=O)c1c(C)c2cnc(Nc3ccc(N4CCNCC4)cn3)nc2n(C2CCCC2)c1=O [Palbociclib] (partner 0.5 µM)
Method in brief: (§1)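 Each reported value is a median over duplicate plates. It expresses relative viability: treated-well nuclei count divided by vehicle-well nuclei count. Lung cancer cell lines in 1536-well plates were dosed by pin tool a day after seeding, alone with one drug or with a fixed anchor-drug dose plus five library-drug doses (not always all listed) in √10 steps, and nuclei were counted after 5 days.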

Sorafenib + Foretinib = compound: CNC(=O)c1cc(Oc2ccc(NC(=O)Nc3ccc(Cl)c(C(F)(F)F)c3)cc2)ccn1 [Sorafenib] + COc1cc2c(Oc3ccc(NC(=O)C4(C(=O)Nc5ccc(F)cc5)CC4)cc3F)ccnc2cc1OCCCN1CCOCC1 [Foretinib] (partner 0.25 µM)
Method in brief: as §1

Sorafenib + Lapatinib = compound: CNC(=O)c1cc(Oc2ccc(NC(=O)Nc3ccc(Cl)c(C(F)(F)F)c3)cc2)ccn1 [Sorafenib] + CS(=O)(=O)CCNCc1ccc(-c2ccc3ncnc(Nc4ccc(OCc5cccc(F)c5)c(Cl)c4)c3c2)o1 [Lapatinib] (partner 2 µM)
Method in brief: as §1

Sorafenib + Olaparib = compound: CNC(=O)c1cc(Oc2ccc(NC(=O)Nc3ccc(Cl)c(C(F)(F)F)c3)cc2)ccn1 [Sorafenib] + O=C(c1cc(Cc2n[nH]c(=O)c3ccccc23)ccc1F)N1CCN(C(=O)C2CC2)CC1 [Olaparib] (partner 8 µM)
Method in brief: as §1

Cell Line | relative viability (Sorafenib; 0.08 µM) | relative viability (Sorafenib; 0.253 µM) | relative viability (Sorafenib; 2.53 µM) | relative viability (Sorafenib; 8 µM) | relative viability (Sorafenib + Palbociclib; first compound 0.08 µM) | relative viability (Sorafenib + Palbociclib; first compound 0.253 µM) | relative viability (Sorafenib + Palbociclib; first compound 2.53 µM) | relative viability (Sorafenib + Palbociclib; first compound 8 µM) | relative viability (Sorafenib + Foretinib; first compound 0.08 µM) | relative viability (Sorafenib + Foretinib; first compound 0.253 µM) | relative viability (Sorafenib + Foretinib; first compound 2.53 µM) | relative viability (Sorafenib + Foretinib; first compound 8 µM) | relative viability (Sorafenib + Lapatinib; first compound 0.08 µM) | relative viability (Sorafenib + Lapatinib; first compound 0.253 µM) | relative viability (Sorafenib + Lapatinib; first compound 2.53 µM) | relative viability (Sorafenib + Lapatinib; first compound 8 µM) | relative viability (Sorafenib + Olaparib; first compound 0.08 µM) | relative viability (Sorafenib + Olaparib; first compound 0.253 µM) | relative viability (Sorafenib + Olaparib; first compound 2.53 µM) | relative viability (Sorafenib + Olaparib; first compound 8 µM)
NCI-H650 | 1.08 | 0.82 | 0.83 | 0.78 | 0.435 | 0.303 | 0.268 | 0.355 | 1.02 | 0.863 | 0.942 | 0.857 | 0.986 | 0.855 | 0.946 | 0.611 | 0.377 | 0.312 | 0.295 | 0.227
EKVX | 1.05 | 0.954 | 0.963 | 0.952 | 0.425 | 0.43 | 0.432 | 0.321 | 1.09 | 0.748 | 0.672 | 0.606 | 0.248 | 0.2 | 0.249 | 0.229 | 0.91 | 0.76 | 0.796 | 0.682
EPLC-272H | 1.19 | 0.842 | 1.09 | 0.774 | 0.332 | 0.338 | 0.486 | 0.295 | 0.702 | 0.716 | 0.788 | 0.508 | 1.08 | 0.838 | 1.04 | 0.735 | 1.11 | 0.838 | 1.02 | 0.283
NCI-H2087 | 1.12 |  | 0.927 | 0.4 | 0.245 | 0.209 | 0.15 | 0.159 | 1.36 | 0.977 | 0.819 | 0.632 | 0.958 | 0.711 | 1.06 | 0.611 | 0.717 | 0.566 | 0.501 | 0.116
NCI-H322M | 1.14 | 0.918 | 1.3 | 1.27 | 0.524 | 0.589 | 0.525 | 0.63 | 1.19 | 0.994 | 1.14 | 1.05 | 0.597 | 0.639 | 0.727 | 0.665 | 0.903 | 0.66 | 0.678 | 0.918
LXF-289 | 1.06 | 0.97 | 1.03 | 0.958 | 0.612 | 0.618 | 0.74 | 0.616 |  | 0.992 | 1.06 | 0.943 | 0.91 | 0.831 | 0.938 |  | 1.03 | 1.04 | 1.01 | 0.96
HCC-827 | 1.06 | 0.954 | 1.02 | 0.956 | 0.572 | 0.478 | 0.492 | 0.514 | 1.1 | 0.981 | 1.02 | 1.02 | 0.23 | 0.191 | 0.155 | 0.237 | 0.621 | 0.623 | 0.572 | 0.464
SW 1573 | 1.03 | 0.98 | 0.877 | 0.456 | 0.39 | 0.363 | 0.417 | 0.09 | 1.09 | 0.791 | 0.995 | 0.777 | 1.18 | 0.978 | 1.12 | 0.963 | 0.47 | 0.518 | 0.437 | 0.132
NCI-H1355 | 1.02 | 0.921 | 0.958 | 0.788 | 0.421 | 0.41 | 0.431 | 0.39 | 1.08 | 0.971 | 0.937 |  | 1.02 | 0.96 | 1.11 | 1.03 |  | 0.753 | 0.685 | 0.411
NCI-H1650 | 1.17 | 0.909 | 1.31 | 0.534 | 0.363 | 0.493 | 0.401 | 0.26 | 1.43 | 1.24 | 1.32 | 0.365 | 0.96 | 0.776 | 0.787 | 0.224 | 0.684 | 0.741 | 0.707 | 0.643
NCI-H1975 | 1.05 | 0.889 | 1.1 | 1.03 | 0.712 | 0.49 | 0.656 | 0.311 |  | 0.958 | 0.994 | 0.649 | 1.04 | 0.835 | 1.02 | 0.448 | 0.936 | 0.779 | 0.669 | 0.353
NCI-H661 |  | 1.02 | 0.97 | 0.713 | 0.4 | 0.408 | 0.385 | 0.289 | 1.03 | 0.986 |  | 0.701 | 0.595 | 0.509 | 0.446 | 0.507 | 0.726 | 0.764 | 0.679 | 0.444
H3255 | 1.07 | 0.89 | 0.99 | 0.755 | 0.33 | 0.3 | 0.306 | 0.287 | 1.06 |  | 0.829 | 0.567 | 0.56 | 0.222 | 0.295 | 0.244 | 0.574 | 0.532 | 0.536 | 0.438
NCI-H1993 | 1.09 | 0.968 | 1.19 | 0.812 | 0.662 | 0.656 | 0.751 | 0.565 | 0.778 | 0.746 | 0.86 | 0.543 | 0.893 | 0.782 |  | 0.78 | 1.12 | 1.2 | 1.22 | 0.751
